Experimental data reported in PubChem BioAssay AID1259407 (Chemical Carcinogenesis Research Information System (CCRIS), 2018).
Calls of active or inactive are those of the source. No rule for the calls is given here.

Test system: CCRIS mutagenicity, Ames/micronucleus/aberration tests
Experiment: CCRIS mutagenicity studies
[1] = Test System: AMES SALMONELLA TYPHIMURIUM, Strain/Indicator: TA98, Metabolic Activation: NONE, Method: PREINCUBATION
[2] = Test System: AMES SALMONELLA TYPHIMURIUM, Strain/Indicator: TA100, Metabolic Activation: NONE, Method: PREINCUBATION
[3] = Test System: AMES SALMONELLA TYPHIMURIUM, Strain/Indicator: TA98, Metabolic Activation: NONE, Method: STANDARD PLATE
[4] = Test System: AMES SALMONELLA TYPHIMURIUM, Strain/Indicator: TA100, Metabolic Activation: NONE, Method: STANDARD PLATE
[5] = Test System: AMES SALMONELLA TYPHIMURIUM, Strain/Indicator: TA1535, Metabolic Activation: NONE, Method: STANDARD PLATE

Structure (SMILES): O=C(Cl)c1cccc(Cl)c1
- mutagenic call [1]: inactive; negative
- mutagenic call (Test System: AMES SALMONELLA TYPHIMURIUM, Strain/Indicator: TA98, Metabolic Activation: RAT LIVER S-9, PCB, Method: PREINCUBATION): active; positive
- mutagenic call [2]: inactive; negative
- mutagenic call (Test System: AMES SALMONELLA TYPHIMURIUM, Strain/Indicator: TA100, Metabolic Activation: RAT LIVER S-9, PCB, Method: PREINCUBATION): active; positive
- mutagenic call (Test System: AMES SALMONELLA TYPHIMURIUM, Strain/Indicator: TA104, Metabolic Activation: NONE, Method: PREINCUBATION): inactive; negative
- mutagenic call (Test System: AMES SALMONELLA TYPHIMURIUM, Strain/Indicator: TA104, Metabolic Activation: RAT LIVER S-9, PCB, Method: PREINCUBATION): active; positive
- mutagenic call (Test System: E.COLI, Strain/Indicator: WP2 UVRA, Metabolic Activation: NONE, Method: PREINCUBATION): inactive; negative
- mutagenic call (Test System: E.COLI, Strain/Indicator: WP2 UVRA, Metabolic Activation: RAT LIVER S-9, PCB, Method: PREINCUBATION): active; positive

Structure (SMILES): O=[N+]([O-])c1ccccc1Br
- mutagenic call [1]: inactive; negative
- mutagenic call [2]: inactive; negative
- mutagenic call (Test System: AMES SALMONELLA TYPHIMURIUM, Strain/Indicator: TA100, Metabolic Activation: RAT, LIVER, S-9, KANECHLOR 500, Method: PREINCUBATION): active; positive

Structure (SMILES): CC1=C(C(=O)Nc2ccccc2)SCCO1
- mutagenic call (Test System: AMES SALMONELLA TYPHIMURIUM, Strain/Indicator: TA97A, Metabolic Activation: NONE, Method: STANDARD PLATE): inactive; negative
- mutagenic call (Test System: AMES SALMONELLA TYPHIMURIUM, Strain/Indicator: TA97A, Metabolic Activation: PLANT, HOMOGENATE, S-14, Method: STANDARD PLATE): inactive; negative
- mutagenic call (Test System: AMES SALMONELLA TYPHIMURIUM, Strain/Indicator: TA97A, Metabolic Activation: S-9, Method: STANDARD PLATE): inactive; negative
- mutagenic call [3]: inactive; negative
- mutagenic call (Test System: AMES SALMONELLA TYPHIMURIUM, Strain/Indicator: TA98, Metabolic Activation: PLANT, HOMOGENATE, S-14, Method: STANDARD PLATE): inactive; negative
- mutagenic call (Test System: AMES SALMONELLA TYPHIMURIUM, Strain/Indicator: TA98, Metabolic Activation: S-9, Method: STANDARD PLATE): inactive; negative
- mutagenic call [4]: inactive; negative
- mutagenic call (Test System: AMES SALMONELLA TYPHIMURIUM, Strain/Indicator: TA100, Metabolic Activation: PLANT, HOMOGENATE, S-14, Method: STANDARD PLATE): inactive; negative
- mutagenic call (Test System: AMES SALMONELLA TYPHIMURIUM, Strain/Indicator: TA100, Metabolic Activation: S-9, Method: STANDARD PLATE): inactive; negative
- mutagenic call [5]: inactive; negative
- mutagenic call (Test System: AMES SALMONELLA TYPHIMURIUM, Strain/Indicator: TA1535, Metabolic Activation: PLANT, HOMOGENATE, S-14, Method: STANDARD PLATE): inactive; negative
- mutagenic call (Test System: AMES SALMONELLA TYPHIMURIUM, Strain/Indicator: TA1535, Metabolic Activation: S-9, Method: STANDARD PLATE): inactive; negative

Structure (SMILES): CC(C)CC(=O)CC(C)C
- mutagenic call (Test System: AMES SALMONELLA TYPHIMURIUM, Strain/Indicator: TA98, Metabolic Activation: HAMSTER, LIVER, S-9, AROCLOR 1254 (10%), Method: PREINCUBATION): inactive; negative
- mutagenic call [1]: inactive; negative
- mutagenic call (Test System: AMES SALMONELLA TYPHIMURIUM, Strain/Indicator: TA98, Metabolic Activation: RAT, LIVER, S-9, AROCLOR 1254 (10%), Method: PREINCUBATION): inactive; negative
- mutagenic call (Test System: AMES SALMONELLA TYPHIMURIUM, Strain/Indicator: TA100, Metabolic Activation: HAMSTER, LIVER, S-9, AROCLOR 1254 (10%), Method: PREINCUBATION): inactive; negative
- mutagenic call [2]: inactive; negative
- mutagenic call (Test System: AMES SALMONELLA TYPHIMURIUM, Strain/Indicator: TA100, Metabolic Activation: RAT, LIVER, S-9, AROCLOR 1254 (10%), Method: PREINCUBATION): inactive; negative
- mutagenic call (Test System: AMES SALMONELLA TYPHIMURIUM, Strain/Indicator: TA1535, Metabolic Activation: HAMSTER, LIVER, S-9, AROCLOR 1254 (10%), Method: PREINCUBATION): inactive; negative
- mutagenic call (Test System: AMES SALMONELLA TYPHIMURIUM, Strain/Indicator: TA1535, Metabolic Activation: HAMSTER, LIVER, S-9, AROCLOR 1254 (50%), Method: PREINCUBATION): inactive; negative
- mutagenic call (Test System: AMES SALMONELLA TYPHIMURIUM, Strain/Indicator: TA1535, Metabolic Activation: NONE, Method: PREINCUBATION): inactive; negative
- mutagenic call (Test System: AMES SALMONELLA TYPHIMURIUM, Strain/Indicator: TA1535, Metabolic Activation: RAT, LIVER, S-9, AROCLOR 1254 (10%), Method: PREINCUBATION): inactive; negative
- mutagenic call (Test System: AMES SALMONELLA TYPHIMURIUM, Strain/Indicator: TA1535, Metabolic Activation: RAT, LIVER, S-9, AROCLOR 1254 (50%), Method: PREINCUBATION): inactive; negative
- mutagenic call (Test System: AMES SALMONELLA TYPHIMURIUM, Strain/Indicator: TA1537, Metabolic Activation: HAMSTER, LIVER, S-9, AROCLOR 1254 (10%), Method: PREINCUBATION): inactive; negative
- mutagenic call (Test System: AMES SALMONELLA TYPHIMURIUM, Strain/Indicator: TA1537, Metabolic Activation: HAMSTER, LIVER, S-9, AROCLOR 1254 (50%), Method: PREINCUBATION): inactive; negative
- mutagenic call (Test System: AMES SALMONELLA TYPHIMURIUM, Strain/Indicator: TA1537, Metabolic Activation: NONE, Method: PREINCUBATION): inactive; negative
- mutagenic call (Test System: AMES SALMONELLA TYPHIMURIUM, Strain/Indicator: TA1537, Metabolic Activation: RAT, LIVER, S-9, AROCLOR 1254 (10%), Method: PREINCUBATION): inactive; negative
- mutagenic call (Test System: AMES SALMONELLA TYPHIMURIUM, Strain/Indicator: TA1537, Metabolic Activation: RAT, LIVER, S-9, AROCLOR 1254 (50%), Method: PREINCUBATION): inactive; negative

Structure (SMILES): CC(C)(C)CBr
- mutagenic call (Test System: AMES SALMONELLA TYPHIMURIUM, Strain/Indicator: TA97, Metabolic Activation: NONE, Method: STANDARD PLATE): inactive; negative
- mutagenic call [3]: inactive; negative
- mutagenic call (Test System: AMES SALMONELLA TYPHIMURIUM, Strain/Indicator: TA98, Metabolic Activation: RAT, LIVER, S-9, AROCLOR, Method: STANDARD PLATE): inactive; negative
- mutagenic call [4]: inactive; negative
- mutagenic call (Test System: AMES SALMONELLA TYPHIMURIUM, Strain/Indicator: TA100, Metabolic Activation: RAT, LIVER, S-9, AROCLOR, Method: STANDARD PLATE): inactive; negative
- mutagenic call [5]: inactive; negative
- mutagenic call (Test System: AMES SALMONELLA TYPHIMURIUM, Strain/Indicator: TA1537, Metabolic Activation: NONE, Method: STANDARD PLATE): inactive; negative
- mutagenic call (Test System: AMES SALMONELLA TYPHIMURIUM, Strain/Indicator: TA1538, Metabolic Activation: NONE, Method: STANDARD PLATE): inactive; negative
- mutagenic call (Test System: AMES SALMONELLA TYPHIMURIUM, Strain/Indicator: TA2637, Metabolic Activation: NONE, Method: STANDARD PLATE): inactive; negative
